Reference: patent publication US8278359B2, “Compositions containing amines and use thereof to treat acne or reduce the appearance of oil or pores on the skin” (Johnson & Johnson Consumer Companies, Inc., priority 2005, dated 2012)
Like-named read-outs stand apart in the source and are kept apart here.

Key:
[1] = system: IFN (interferon-gamma); assay: PHA-stimulated peripheral blood lymphocyte cytokine release: IFN; type: cell-based; conditions: Homo sapiens, read-out: IFN % inh.
Excerpt: (§1) The ability of various amines to affect the inflammatory responses was illustrated by its ability to reduce the production of cytokines by human lymphocytes stimulated with the T-cell receptor (TCR) activating agent phytohaemagglutinin (PHA) in the following assay.
(§2) Human leukocytes were collected from a healthy adult […] via leukopheresis, and adjusted to a density Of 1×10^6 cells/mL in serum free lymphocyte growth medium (ExVivo-15, Biowhittaker, Walkersville, Md.). PBLs were stimulated with 10 μg/mL PHA in the presence or absence of test samples following published methods (Hamamoto Y., et al. Exp Dermatol 2:231-235, 1993). The following compounds were evaluated N,N,N′,N′-Tetrakis(2-hydroxypropyl)ethylenediamine (THPED, available from BASF under the tradename “Quadrol” or “Neutrol”), N,N,N,N-Tetramethylethylenediamine (TEMED, available from Pfaltz & Bauer Chemicals (Waterbury, Conn.)), and Diethylenetriamine (available from Sigma-Aldrich) Following a 48 hour incubation at 37° C. with 5% CO2, the supernatant was removed and evaluated for cytokine content using commercially available multiplex cytokine detection kit.

[2] = system: GM-CSF (granulocyte macrophage stimulating factor); assay: PHA-stimulated peripheral blood lymphocyte cytokine release: GM-CSF; type: cell-based; conditions: Homo sapiens, read-out: GMCSF % inh.
Excerpt: as §1, §2

[3] = system: IL-2 (Interleukin-2); assay: PHA-stimulated peripheral blood lymphocyte cytokine release: IL-2; type: cell-based; conditions: Homo sapiens, read-out: IL-2 % inh.
Excerpt: as §1, §2

[4] = system: TNF (tissue necrosis factor-alpha); assay: PHA-stimulated peripheral blood lymphocyte cytokine release: TNF; type: cell-based; conditions: Homo sapiens, read-out: TNF % inh.
Excerpt: as §1, §2

[5] = system: tyrosinase; assay: Tyrosinase activity in lysates of treated B16 cells (DOPA, absorbance 490 nm); type: cell-based, murine; conditions: 10 μg/ml; B16 cells 48 hours; activity at 3-hours, normalized for total protein
Protocol: THPED was also tested for its ability to induce tyrosinase activity in B16 cells by spectroscopic measuring of the final product, melanin. B16 cells were treated with THPED at different concentrations at pH 7.2 for 48 hours and cells were then lysed in 250 μl of PBS containing 1% Triton X-100 (Sigma, St. Louis, Mo.). The lysates were collected and centrifuged at 14,000 rpm for 5 minutes at 4° C. to pellet any insoluble material. Lysates (100 μl) were transferred to a 96 well assay plate (Corning Costar, San Diego, Calif.) and mixed with 100 μl of 0.1% (w/v) DOPA in PBS. The absorbance at 490 nm was then monitored from 0 to 12 hours using a VersaMax Plate Spectrophotometer (Molecular Devices, Sunnyvale, Calif.) and SoftMax Pro analytical software (Molecular Devices, Sunnyvale, Calif.). The tyrosinase activities were normalized for total protein using the BioRad Dc Protein Assay (Bio Rad, Hercules, Calif.).

[6] = system: tyrosinase; assay: Tyrosinase protein levels in B16 cells (Western blot, normalized to β-Actin); type: cell-based, murine; conditions: 20 μg/ml, PBS treated control = 1
Protocol: THPED was also tested for its ability to induce tyrosinase protein levels in B16 cells. B16 cells were treated with THPED at different concentrations at pH 7.2 for 48 hours and cells were then lysed in 250 μl of PBS containing 1% Triton X-100. B16 cell lysates containing 3.7 μg of protein (for tyrosinase protein analysis) and 1.2 μg of protein (for β-Actin protein analysis) were electrophoresed on 4-20% Tris-Glycine SDS PAGE minigels (Invitrogen, Carlsbad, Calif.), transferred onto PVDF membrane (Bio Rad, Hercules, Calif.), and probed with antibodies for Tyrosinase (1:200 in PBS+0.2% Tween 20+5% BSA, obtained from Santa Cruz Biotechnology, Inc., Santa Cruz, Calif.) and β-Actin (1:2000 in PBS+0.2% Tween 20+5% BSA, obtained from Sigma, St. Louis, Mo.). Protein expression of tyrosinase and β-Actin were analyzed using ECL reagent and Hyperfilm ECL obtained from Amersham (Piscataway, N.J.). The film was developed using a Konica SRX-101A Processor (East Orange, N.J.).
Tyrosinase protein level in untreated B16 cells was normalized to 1.

[7] = system: B16 cells; assay: Induction of pigmentation in vitro, DOPA staining; type: cell-based, murine; conditions: 10 ug/ml, 48 hours
Protocol: THPED was tested for its effect on pigmentation, using melanocytes, DOPA staining and computerized image analysis. THPED was obtained from BASF (Florham Park, N.J.). THPED was dissolved in culture medium and pH was adjusted to neutral (pH 7.2). THPED was assayed at concentrations ranging from 0.05-0.01%.
B16 cells (a murine melanoma cell line) were obtained from American Type Culture Collection (Manassas, Va.). Cells were cultured in Dulbecco's Modified Eagle Medium (DMEM) containing 10% fetal bovine serum (FBS), 4.5 mg/ml glucose, 2 mM L-glutamine, sodium pyruvate, without phenol red (Invitrogen, Carlsbad, Calif.). B16 cells were plated on 12 well tissue culture plates (Corning Costar, San Diego, Calif.), at 40,000 cells per well in the above culture media. Cells were allowed to grow overnight and then treated with various concentrations of THPED at pH 7.2 for total 48 hours. Fresh media containing the experimental treatments were changed once daily.
At the end of the treatment, the cells were washed for 5 minutes, twice, in phosphate-buffered saline (PBS, from Life Technologies, Gaithersburg, Md.), then briefly fixed in 10% buffered formalin (from Sigma St. Louis, Mo.) for 10 minutes, washed three times with PBS and stained with 0.1% L-3,4-Dihydroxyphenylalanine (DOPA, from Sigma, St. Louis, Mo.) in PBS for 2-3 hours at 37° C., followed by three PBS washes. DOPA is a substrate for tyrosinase; therefore an increase in staining represents increased tyrosinase activity and pigment production. Images of DOPA-stained cells were taken using a Leica DMIL microscope (Bannockburn, Ill.) and an OPTRONICS DEI-750 digital camera (Goleta, Calif.). All images were obtained and analyzed with Image Pro Plus 4.0 software (Media Cybernetics, Silver Spring, Md.).
The pigment change was evaluated using the scale defined in Table XII.

[8] = 10 μg/ml, 10 μg/mL PHA, 48 hour incubation
[9] = 100 μg/ml, 10 μg/mL PHA, 48 hour incubation

SMILES	inhibition at 10 µg/mL [1, 8] [%]	inhibition at 100 µg/mL [1, 9] [%]	inhibition at 10 µg/mL [2, 8] [%]	inhibition at 100 µg/mL [2, 9] [%]	inhibition at 10 µg/mL [3, 8] [%]	inhibition at 100 µg/mL [3, 9] [%]	inhibition at 10 µg/mL [4, 8] [%]	inhibition at 100 µg/mL [4, 9] [%]	% tyrosinase activity relative to untreated control [5] [%]	Relative increase in tyrosinase protein [6] [fold]	Pigmentation score [7]	inhibition at 10 µg/mL ([1]; 48 h) [%]	inhibition at 100 µg/mL ([1]; 48 h) [%]	inhibition at 10 µg/mL ([2]; 48 h) [%]	inhibition at 100 µg/mL ([2]; 48 h) [%]	inhibition at 10 µg/mL ([3]; 48 h) [%]	inhibition at 100 µg/mL ([3]; 48 h) [%]	inhibition at 10 µg/mL ([4]; 48 h) [%]	inhibition at 100 µg/mL ([4]; 48 h) [%]
NCCNCCN [Diethylenetriamine]	-1.2	-35	36.6	51.7	4.7	-19.5	9.9	3.3											
C=C[C@@]1(C)CC(=O)[C@]2(O)[C@@]3(C)[C@@H](O)CCC(C)(C)[C@@H]3[C@H](O)[C@H](OC(C)=O)[C@@]2(C)O1 [Forskolin, forskolin, reference compound]									202.35	34	3								
CN(C)CCN(C)C [TEMED, N, N, N′, N′-tetramethylethylene diamine]												36.9	58.6	47.4	53.1	6.6	42.9	33.6	41.8
OCCN(CCO)CCN(CCO)CCO [THEED, N, N, N′, N′-Tetrakis(2-hydroxyethyl)ethylene diamine]												23.7	49.5	16.6	23	27.7	61.8	35.8	44.5
CC(C)NCCN(CCNC(C)C)CCNC(C)C [Tris[2-(isopropylamino)ethyl]amine, reference compound]	20.3	12.5	-26.4	-52.8	-7.7	2.3	-10.7	-15.3											
